In ChEMBL document CHEMBL5380813, “Discovery of 2H-Indazole-3-carboxamide Derivatives as Novel Potent Prostanoid EP4 Receptor Antagonists for Colorectal Cancer Immunotherapy” (J Med Chem, 2023):

Target: T1, Prostaglandin E2 receptor EP4 subtype (Homo sapiens, UniProt P35408)
Assay: Antagonist activity at human EP4 receptor transfected in HEK293 cells assessed as inhibition of PGE2-induced cAMP production measured for 30 mins by Glosensor cAMP assay
Details: not given

T1 sequence (P35408 whole entry): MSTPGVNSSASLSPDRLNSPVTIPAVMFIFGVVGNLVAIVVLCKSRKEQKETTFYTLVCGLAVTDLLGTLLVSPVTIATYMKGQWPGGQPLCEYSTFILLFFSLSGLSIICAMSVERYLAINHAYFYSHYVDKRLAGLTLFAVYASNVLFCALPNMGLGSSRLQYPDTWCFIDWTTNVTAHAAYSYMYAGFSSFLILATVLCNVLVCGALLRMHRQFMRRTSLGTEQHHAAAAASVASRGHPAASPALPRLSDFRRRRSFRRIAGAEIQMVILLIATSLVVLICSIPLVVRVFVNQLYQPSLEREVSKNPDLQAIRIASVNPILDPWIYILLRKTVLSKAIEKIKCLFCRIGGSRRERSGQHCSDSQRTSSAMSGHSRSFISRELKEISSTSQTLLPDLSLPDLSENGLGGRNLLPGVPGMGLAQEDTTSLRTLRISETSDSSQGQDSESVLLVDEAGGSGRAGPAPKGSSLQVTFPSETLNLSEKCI

SMILES | IC50
O=C(O)c1ccc(CNC(=O)c2c3ccccc3nn2Cc2cccc(Cl)c2)cc1 | 6.9 nM
COc1cccc(Cn2nc3ccccc3c2C(=O)N[C@@H](C)c2ccc(C(=O)O)cc2)c1 | 19 nM
COc1ccc(Cn2nc3ccccc3c2C(=O)NCc2ccc(C(=O)O)cc2)cc1 | 4.4 nM
COc1cccc(Cn2nc3ccccc3c2C(=O)NCc2ccc(C(=O)O)cc2)c1 | 12 nM
C[C@H](NC(=O)c1c2ccccc2nn1Cc1ccc(OC(F)(F)F)cc1)c1ccc(C(=O)O)cc1 | 4.3 nM
O=C(O)c1ccc(CNC(=O)c2nn(Cc3ccc(Cl)cc3)c3ccccc23)cc1 | 10000 nM
O=C(O)c1ccc(CNC(=O)c2c3ccccc3nn2Cc2ccc(F)cc2)cc1 | 7.1 nM
COc1ccc(Cn2nc3ccccc3c2C(=O)NCc2ccc(C(=O)O)cc2)cc1F | 2.1 nM
COc1c(F)cc(Cn2nc3ccccc3c2C(=O)NCc2ccc(C(=O)O)cc2)cc1F | 7.5 nM
COc1ccc(Cn2nc3ccccc3c2C(=O)N[C@@H](C)c2ccc(C(=O)O)cc2)cc1 | 7.2 nM
O=C(O)c1ccc(CNC(=O)c2c3ccccc3nn2Cc2cccc(F)c2)cc1 | 17 nM
O=C(O)c1ccc(C2(NC(=O)c3c4ccccc4nn3Cc3ccc(C(F)(F)F)cc3)CC2)cc1 | 6.9 nM
O=C(O)c1ccc(CNC(=O)c2nn(Cc3cccc(C(F)(F)F)c3)c3ccccc23)cc1 | 10000 nM
O=C(O)c1ccc(CNC(=O)c2c3ccccc3nn2CCOc2ccc(Cl)cc2)cc1 | 21.8 nM
O=C(O)c1ccc(CNC(=O)c2nn(Cc3ccc(OC(F)(F)F)cc3)c3ccccc23)cc1 | 10000 nM
O=C(O)c1ccc(CNC(=O)c2c3ccccc3nn2CCOc2cccc(C(F)(F)F)c2)cc1 | 69.1 nM
O=C(O)c1ccc(CNC(=O)c2nn(Cc3cccc(Cl)c3)c3ccccc23)cc1 | 10000 nM
COc1ccc(Cn2nc(C(=O)NCc3ccc(C(=O)O)cc3)c3ccccc32)cc1 | 10000 nM
O=C(O)c1ccc(CNC(=O)c2nn(Cc3ccc(C(F)(F)F)cc3)c3ccccc23)cc1 | 10000 nM
O=C(O)c1ccc(CNC(=O)c2nn(Cc3ccccc3)c3ccccc23)cc1 | 10000 nM
COc1ccc(Cn2nc3ccccc3c2C(=O)NCc2ccc(C(=O)O)cc2)cc1Cl | 6.5 nM
O=C(O)c1ccc(CNC(=O)c2c3ccccc3nn2Cc2ccc(C(F)(F)F)cc2F)cc1 | 2 nM
COc1cccc(Cn2nc(C(=O)NCc3ccc(C(=O)O)cc3)c3ccccc32)c1 | 10000 nM
O=C(O)c1ccc(CNC(=O)c2c3ccccc3nn2Cc2ccc(Cl)c(F)c2)cc1 | 1.7 nM
O=C(O)c1ccc(CNC(=O)c2c3ccc(F)cc3nn2Cc2ccc(C(F)(F)F)cc2)cc1 | 5.7 nM
Cc1ccc(Cn2nc3ccccc3c2C(=O)NCc2ccc(C(=O)O)cc2)cc1 | 4.2 nM
COc1ccc2c(C(=O)NCc3ccc(C(=O)O)cc3)n(Cc3ccc(C(F)(F)F)cc3)nc2c1 | 59.4 nM
O=C(O)c1cccc(NC(=O)c2c3ccccc3nn2Cc2cccc(F)c2)c1 | 10000 nM
O=C(O)c1cccc(NC(=O)c2c3ccccc3nn2Cc2ccc(F)cc2)c1 | 10000 nM

Target: T2, Cytochrome P450 1A2 (Homo sapiens, UniProt P05177)
T2 sequence (P05177 whole entry): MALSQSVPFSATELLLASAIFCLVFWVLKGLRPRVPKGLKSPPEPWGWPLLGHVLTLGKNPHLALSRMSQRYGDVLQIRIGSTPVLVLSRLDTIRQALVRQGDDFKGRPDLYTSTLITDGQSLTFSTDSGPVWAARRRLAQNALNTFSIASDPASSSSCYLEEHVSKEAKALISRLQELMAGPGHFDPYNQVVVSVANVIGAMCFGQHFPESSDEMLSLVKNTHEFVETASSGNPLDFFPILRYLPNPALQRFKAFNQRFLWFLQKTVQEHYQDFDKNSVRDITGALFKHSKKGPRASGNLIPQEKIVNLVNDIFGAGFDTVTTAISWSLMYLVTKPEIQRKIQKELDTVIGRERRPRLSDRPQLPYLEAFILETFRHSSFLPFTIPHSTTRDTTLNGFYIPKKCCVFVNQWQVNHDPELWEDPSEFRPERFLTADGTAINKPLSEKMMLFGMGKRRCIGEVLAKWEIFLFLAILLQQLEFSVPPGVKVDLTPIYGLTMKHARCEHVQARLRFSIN
Assay: Inhibition of CYP1A2 (unknown origin)
Type: ADME
Details: not given

SMILES | IC50
O=C(O)c1ccc(CNC(=O)c2c3ccccc3nn2Cc2ccc(C(F)(F)F)cc2)cc1 | > 50000 nM

Target: T3, Prostaglandin E2 receptor EP3 subtype (Homo sapiens, UniProt P43115)
T3 sequence (P43115 whole entry): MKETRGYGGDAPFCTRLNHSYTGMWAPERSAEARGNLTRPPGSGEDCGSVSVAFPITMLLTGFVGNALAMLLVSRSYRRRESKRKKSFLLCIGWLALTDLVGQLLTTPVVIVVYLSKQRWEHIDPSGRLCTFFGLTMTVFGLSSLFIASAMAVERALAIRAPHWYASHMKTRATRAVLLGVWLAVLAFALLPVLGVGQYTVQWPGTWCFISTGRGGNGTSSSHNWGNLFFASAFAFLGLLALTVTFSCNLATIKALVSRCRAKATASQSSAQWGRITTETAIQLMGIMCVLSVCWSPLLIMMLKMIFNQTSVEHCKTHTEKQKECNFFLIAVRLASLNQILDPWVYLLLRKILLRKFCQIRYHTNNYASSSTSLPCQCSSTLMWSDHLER
Assay: Antagonist activity at human EP3 receptor expressed in CHO cells co-expressing Galpha16 assessed as inhibition of PGE2 induced intracellular calcium flux preincubated for 20 mins followed by PGE2 stimulation and measured immediately by microplate reader analysis
Type: functional, cell-based
Details: not given

SMILES | IC50
O=C(O)c1ccc(CNC(=O)c2c3ccccc3nn2Cc2ccc(C(F)(F)F)cc2)cc1 | > 10000 nM

Target: Prostaglandin E2 receptor EP4 subtype (Mus musculus, UniProt P32240)
Sequence (P32240 whole entry): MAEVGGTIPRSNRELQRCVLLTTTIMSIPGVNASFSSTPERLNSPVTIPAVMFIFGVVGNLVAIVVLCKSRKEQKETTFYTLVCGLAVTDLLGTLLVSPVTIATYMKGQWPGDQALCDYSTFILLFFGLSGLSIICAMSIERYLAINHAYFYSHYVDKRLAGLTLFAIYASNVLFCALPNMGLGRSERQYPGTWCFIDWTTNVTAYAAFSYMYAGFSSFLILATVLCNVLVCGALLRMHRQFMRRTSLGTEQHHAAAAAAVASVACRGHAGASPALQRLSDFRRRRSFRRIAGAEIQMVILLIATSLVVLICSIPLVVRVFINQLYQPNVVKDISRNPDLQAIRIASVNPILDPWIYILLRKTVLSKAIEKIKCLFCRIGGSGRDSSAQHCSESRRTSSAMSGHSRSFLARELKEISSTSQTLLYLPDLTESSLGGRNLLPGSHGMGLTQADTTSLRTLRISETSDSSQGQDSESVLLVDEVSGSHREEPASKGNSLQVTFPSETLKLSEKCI
Assay: Antagonist activity at mouse EP4 receptor transfected in HEK293 cells assessed as inhibition of PGE2-induced cAMP production measured for 30 mins by Glosensor cAMP assay
Type: functional, cell-based
Details: not given

SMILES | IC50
O=C(O)c1ccc(CNC(=O)c2c3ccccc3nn2Cc2ccc(C(F)(F)F)cc2)cc1 | 1.6 nM

Target: T1, Prostaglandin E2 receptor EP4 subtype
Assay: Antagonist activity at EP4 receptor (unknown origin) by GloSensor cAMP assay
Details: not given

SMILES | IC50
O=C(O)c1ccc(NC(=O)c2c3ccccc3nn2Cc2ccc(F)cc2)cc1 | 3110 nM

Tested on: not given
Assay: not given
Details: human, microsomes

SMILES | CLH
O=C(O)Cc1ccccc1Nc1c(Cl)cccc1Cl [DICLOFENAC] | 0.2079 mL/min/kg
C[C@]12CC[C@H]3[C@@H](CCC4=CC(=O)CC[C@@]43C)[C@@H]1CC[C@@H]2O [TESTOSTERONE] | 0.1082 mL/min/kg

Tested on: CT26
Assay: animal or person
Details: Mus musculus, CT26, po, 240 h, read-out: TGI
Description: Antitumor activity against mouse CT26 cells implanted in BALB/c mouse assessed as tumor growth inhibition at 100 mg/kg, po administered daily for 10 days and measured every 2 days relative to control

SMILES | inhibition in vivo at 100 mg/kg
C[C@H](NC(=O)c1c(C(F)F)nn(C)c1Oc1cccc(C(F)(F)F)c1)c1ccc(C(=O)O)cc1 [PALUPIPRANT] | 43.3%

Target: Prostaglandin E2 receptor EP4 subtype (Rattus norvegicus, UniProt P43114)
Sequence (P43114 whole entry): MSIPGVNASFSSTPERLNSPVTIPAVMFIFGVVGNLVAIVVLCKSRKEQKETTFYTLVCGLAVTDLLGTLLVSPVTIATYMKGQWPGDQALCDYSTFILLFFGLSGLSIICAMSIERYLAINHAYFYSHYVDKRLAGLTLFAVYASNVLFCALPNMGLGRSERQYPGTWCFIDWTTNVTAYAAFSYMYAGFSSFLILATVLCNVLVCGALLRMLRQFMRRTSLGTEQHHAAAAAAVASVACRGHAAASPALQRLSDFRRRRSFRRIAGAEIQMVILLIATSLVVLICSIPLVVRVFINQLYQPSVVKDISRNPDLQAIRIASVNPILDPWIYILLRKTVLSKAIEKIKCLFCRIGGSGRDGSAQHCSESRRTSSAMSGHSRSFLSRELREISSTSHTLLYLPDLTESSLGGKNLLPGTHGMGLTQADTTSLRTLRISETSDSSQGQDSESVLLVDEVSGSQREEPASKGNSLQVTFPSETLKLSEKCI
Assay: Antagonist activity at rat EP4 receptor transfected in HEK293 cells assessed as inhibition of PGE2-induced cAMP production measured for 30 mins by Glosensor cAMP assay
Type: functional, cell-based
Details: not given

SMILES | IC50
O=C(O)c1ccc(CNC(=O)c2c3ccccc3nn2Cc2ccc(C(F)(F)F)cc2)cc1 | 36.3 nM

Target: Cytochrome P450 2C19 (Homo sapiens, UniProt P33261)
Sequence (P33261 whole entry): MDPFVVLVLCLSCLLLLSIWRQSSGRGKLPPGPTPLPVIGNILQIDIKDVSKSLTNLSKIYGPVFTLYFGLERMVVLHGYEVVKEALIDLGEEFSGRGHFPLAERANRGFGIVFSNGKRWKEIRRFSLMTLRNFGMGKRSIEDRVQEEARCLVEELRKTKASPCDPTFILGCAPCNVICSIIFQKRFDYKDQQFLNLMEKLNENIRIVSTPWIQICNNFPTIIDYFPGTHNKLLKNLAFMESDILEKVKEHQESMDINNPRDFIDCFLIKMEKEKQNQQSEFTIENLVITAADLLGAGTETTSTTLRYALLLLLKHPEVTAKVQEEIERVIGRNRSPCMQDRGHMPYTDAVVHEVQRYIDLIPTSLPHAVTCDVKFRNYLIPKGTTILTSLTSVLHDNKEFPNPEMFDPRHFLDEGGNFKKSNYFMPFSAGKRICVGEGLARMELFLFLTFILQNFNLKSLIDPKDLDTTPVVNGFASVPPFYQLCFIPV
Assay: Inhibition of CYP2C19 (unknown origin)
Type: ADME
Details: not given

SMILES | IC50
O=C(O)c1ccc(CNC(=O)c2c3ccccc3nn2Cc2ccc(C(F)(F)F)cc2)cc1 | > 50000 nM

Target: Prostaglandin E2 receptor EP2 subtype (Homo sapiens, UniProt P43116)
Sequence (P43116 whole entry): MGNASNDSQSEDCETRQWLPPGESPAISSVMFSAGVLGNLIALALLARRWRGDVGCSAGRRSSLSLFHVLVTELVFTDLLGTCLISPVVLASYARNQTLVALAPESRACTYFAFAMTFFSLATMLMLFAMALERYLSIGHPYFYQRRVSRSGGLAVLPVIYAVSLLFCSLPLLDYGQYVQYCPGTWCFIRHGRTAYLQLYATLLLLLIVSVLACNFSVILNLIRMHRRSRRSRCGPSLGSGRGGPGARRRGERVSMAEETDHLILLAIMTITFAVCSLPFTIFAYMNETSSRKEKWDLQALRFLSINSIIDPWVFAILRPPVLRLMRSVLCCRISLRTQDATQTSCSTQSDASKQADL
Assay: Antagonist activity at human EP2 receptor expressed in CHO cells co-expressing Galpha16 assessed as inhibition of PGE2 induced intracellular calcium flux preincubated for 20 mins followed by PGE2 stimulation and measured immediately by microplate reader analysis
Type: functional, cell-based
Details: not given

SMILES | IC50
O=C(O)c1ccc(CNC(=O)c2c3ccccc3nn2Cc2ccc(C(F)(F)F)cc2)cc1 | > 10000 nM

Target: Cytochrome P450 2C9 (Homo sapiens, UniProt P11712)
Sequence (P11712 whole entry): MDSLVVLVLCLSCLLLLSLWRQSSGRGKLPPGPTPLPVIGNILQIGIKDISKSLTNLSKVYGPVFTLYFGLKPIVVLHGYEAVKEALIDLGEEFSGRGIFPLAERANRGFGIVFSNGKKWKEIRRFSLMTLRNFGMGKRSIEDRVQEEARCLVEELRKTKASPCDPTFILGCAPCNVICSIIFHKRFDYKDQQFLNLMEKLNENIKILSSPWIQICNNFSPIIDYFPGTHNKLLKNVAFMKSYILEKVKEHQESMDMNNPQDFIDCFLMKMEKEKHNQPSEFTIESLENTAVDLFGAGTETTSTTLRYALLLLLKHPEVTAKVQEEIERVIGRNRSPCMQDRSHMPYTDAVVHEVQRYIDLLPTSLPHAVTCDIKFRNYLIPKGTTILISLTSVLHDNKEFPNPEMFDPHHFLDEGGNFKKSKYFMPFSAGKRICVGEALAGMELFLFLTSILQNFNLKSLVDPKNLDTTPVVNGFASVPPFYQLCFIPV
Assay: Inhibition of CYP2C9 (unknown origin)
Type: ADME
Details: not given

SMILES | IC50
O=C(O)c1ccc(CNC(=O)c2c3ccccc3nn2Cc2ccc(C(F)(F)F)cc2)cc1 | > 50000 nM

Target: Cytochrome P450 2D6 (Homo sapiens, UniProt P10635)
Sequence (P10635 whole entry): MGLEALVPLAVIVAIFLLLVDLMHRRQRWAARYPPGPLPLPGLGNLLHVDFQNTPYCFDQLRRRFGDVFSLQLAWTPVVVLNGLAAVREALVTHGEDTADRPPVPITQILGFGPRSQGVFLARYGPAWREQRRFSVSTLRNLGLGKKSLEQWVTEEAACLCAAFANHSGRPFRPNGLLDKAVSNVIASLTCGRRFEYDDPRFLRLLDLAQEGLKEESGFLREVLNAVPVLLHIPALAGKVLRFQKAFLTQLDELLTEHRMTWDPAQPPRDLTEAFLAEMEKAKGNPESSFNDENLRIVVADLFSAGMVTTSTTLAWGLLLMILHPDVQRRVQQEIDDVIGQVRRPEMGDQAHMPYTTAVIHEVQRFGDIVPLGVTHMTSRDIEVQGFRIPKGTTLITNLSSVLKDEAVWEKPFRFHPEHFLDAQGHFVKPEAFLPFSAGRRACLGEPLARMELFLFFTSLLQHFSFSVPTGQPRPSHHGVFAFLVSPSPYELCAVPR
Assay: Inhibition of CYP2D6 (unknown origin)
Type: ADME
Details: not given

SMILES | IC50
O=C(O)c1ccc(CNC(=O)c2c3ccccc3nn2Cc2ccc(C(F)(F)F)cc2)cc1 | > 50000 nM

Tested on: not listed separately
Assay: Metabolic stability in human liver assessed as intrinsic clearance
Details: not given

SMILES | CLint scaled
O=C(O)Cc1ccccc1Nc1c(Cl)cccc1Cl [DICLOFENAC] | 187 mL/min/kg
O=C(O)c1ccc(CNC(=O)c2c3ccccc3nn2Cc2ccc(Cl)c(F)c2)cc1 | < 8.6 mL/min/kg
O=C(O)c1ccc(CNC(=O)c2c3ccc(F)cc3nn2Cc2ccc(C(F)(F)F)cc2)cc1 | < 8.6 mL/min/kg
C[C@]12CC[C@H]3[C@@H](CCC4=CC(=O)CC[C@@]43C)[C@@H]1CC[C@@H]2O [TESTOSTERONE] | 97.4 mL/min/kg

Target: CYP3A (Homo sapiens, UniProt P08684+P20815+P24462+Q9HB55)
Assay: Inhibition of CYP3A (unknown origin) assessed as reduction in midazolam […] activity
Type: ADME, protein assay
Details: probe midazolam

SMILES | IC50
O=C(O)c1ccc(CNC(=O)c2c3ccccc3nn2Cc2ccc(C(F)(F)F)cc2)cc1 | > 50000 nM
